Tested on: A549
Test: Cytotoxicity against human A549 cells after 2 days by AlamarBlue assay
Details: A549, 48 h

| SMILES | IC50 [µM] |
| --- | --- |
| COC1=C2C[C@@H](C)C[C@H](OC)[C@H](O)[C@@H](C)/C=C(\C)[C@H](OC(N)=O)[C@@H](OC)/C=C\C=C(/C)C(=O)NC(=CC1=O)C2=O [GELDANAMYCIN] | 0.15 |
| CO[C@H]1[C@@H](OC)C[C@H](C)[C@@H](OC)C2=CC(=O)C=C(NC(=O)/C(C)=C/C=C/[C@H](OC)[C@@H](OC(N)=O)/C(C)=C/[C@@H]1C)C2=O [HERBIMYCIN] | 0.15 |
